Test results from patent US7091248B2, “Treatment of adrenocortical hypersecretion and tumor growth” (priority 2001, dated 2006).
Where “and” joins values, the source holds several entries; their conditions need not be identical. Equal entries are not always repeated. Entries after “also recorded” stand apart in the source; their conditions may differ. Where two headings read alike, the source gives them in different places.

Tests used:
normal adrenal slices [1] = assay: Phosphorautoradiography, semi-quantification of tissue-bound radioactivity in normal adrenal slices; assay type: cell-based, human; conditions: for inhibition of irreversible binding in zona fasciculata/reticularis in metyrapone-exposed slices: metyrapone 50 μM, 24 h of exposure, compared with slices without metyrapone; for amount of tissue-bound radioactivity, MeSO2-[14C]DDE- versus o,p′-[14C]DDD-exposed slices: normal human adrenal slices, phosphorautoradiography
Method: Normal adrenal tissue, cortex as well as apparently unaffected medulla, was obtained from a […] MEN 2 patient operated on for an ipsilateral pheochromocytoma. Another normal adrenal was obtained from a patient operated on for a renal carcinoma. Adrenal tissue was placed in ice-cold isotonic saline solution after removal and kept on ice until embedded in 3% agarose. Precision-cut slices (200 μm) were prepared in a Krumdieck tissue slicer (Alabama Research and Development, Munford, Ala., USA) in ice-cold PBS. Slices of roughly equal size were placed in culture medium on a titanium screen holder and incubated for 24 h (after a 1 h pre-incubation). To inhibit CYP-dependent enzyme activity in the slices, incubation wells were supplemented with the CYP11B1 (11β-hydroxylase) inhibitor metyrapone (50 μM) when applicable. To stimulate ACTH-regulated enzyme activity in the slices, the synthetic ACTH-analogue tetracosactide (11 nM) was added. The labeled and unlabeled test substances (MeSO2-DDE and o,p'-DDD) were added to the fresh incubation medium, dissolved in DMSO (not exceeding 0.5% of the total volume). Control slices were cultured in medium containing DMSO only. Phosphorautoradiography: […] The radioactivity in the labeled areas of the adrenal sections was recorded by reading the imaging plate in a Phosphoimager (BAS 1500, Fuji, Japan). For semi-quantification of the tissue-bound radioactivity, a Windows-based bio-imaging analyzer program (ImageGauge, version 3.122, Fujifilm, Japan) was used. […] The values were adjusted according to the difference in specific activity of the two compounds. In order to check the imaging plates with respect to exposure linearity, the same plate was repeatedly exposed to the same sections for 7, 14, 28, 49 and 122 days, reading and erasing the plate between each exposure. […] Intra-exposure variation was measured on three adjacent sections on the same glass-slide.

[2] = system: mouse adrenal zona fasciculata cells; conditions: cited from earlier work
CYP 11B1 [3] = target: T1, CYP 11B1 (Homo sapiens, UniProt P15538); set-up: endogenous in cells; host or cells: H295R human adrenocortical carcinoma cell line; conditions: 10 μM; H295R cells; cited from earlier work
T1 sequence (P15538 25-503): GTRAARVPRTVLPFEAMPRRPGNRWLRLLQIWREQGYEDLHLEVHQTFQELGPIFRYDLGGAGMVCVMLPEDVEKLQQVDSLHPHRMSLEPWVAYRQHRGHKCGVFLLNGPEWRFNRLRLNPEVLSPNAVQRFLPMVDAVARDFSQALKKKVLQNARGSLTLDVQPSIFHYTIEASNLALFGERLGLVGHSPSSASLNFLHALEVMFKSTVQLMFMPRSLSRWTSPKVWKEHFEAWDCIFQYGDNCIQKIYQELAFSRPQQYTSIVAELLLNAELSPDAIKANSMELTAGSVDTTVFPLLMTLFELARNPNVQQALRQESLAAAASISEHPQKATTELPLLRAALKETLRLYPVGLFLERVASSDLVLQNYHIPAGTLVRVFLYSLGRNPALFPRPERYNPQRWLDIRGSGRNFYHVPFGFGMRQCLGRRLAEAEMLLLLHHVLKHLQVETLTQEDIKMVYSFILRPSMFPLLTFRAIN

rat adrenal slices = conditions: ex vivo slice culture; cited from earlier work
mouse adrenal slices = conditions: cited from earlier work; for irreversible binding in mouse adrenal cortex slices: ex vivo slice culture
[4] = system: adrenocortical carcinoma cells; assay: Autoradiography of slices from a lymphnode metastasis of an aldosterone producing adrenocortical carcinoma; assay type: cell-based, human
Method: Tissue from a lymphnode metastasis of an aldosterone producing adrenocortical carcinoma was obtained from a person.
(§1) Adrenal tissue was placed in ice-cold isotonic saline solution after removal and kept on ice until embedded in 3% agarose. Precision-cut slices (200 μm) were prepared in a Krumdieck tissue slicer (Alabama Research and Development, Munford, Ala., USA) in ice-cold PBS. Slices of roughly equal size were placed in culture medium on a titanium screen holder and incubated for 24 h (after a 1 h pre-incubation).
Microautoradiography: Slices were incubated with MeSO2-[^14C]DDE (2.6 μM, 35 nCi/ml) or o,p′-[^14C]DDD (3.8 μM, 60 nCi/ml) for 24 h. The labeled substances were added to the medium dissolved in DMSO. Following incubation, slices were fixed overnight in buffered formaldehyde (4%). The fixed slices were dehydrated, embedded in methacrylate, sectioned, and dipped in liquid NTB2 film emulsion, as described elsewhere (4). Autoradiograms were exposed (4° C.) for one year to enable localization of irreversible binding in metyrapone-treated slices. Autoradiograms were developed, stained, and examined as previously described (4).

adrenal slices = assay: Steroid hormone secretion from adrenal slices into culture medium (HPLC); assay type: cell-based, human; conditions: 25 μM
Method: as §1
(§2) To inhibit CYP-dependent enzyme activity in the slices, incubation wells were supplemented with the CYP11B1 (11β-hydroxylase) inhibitor metyrapone (50 μM) when applicable. To stimulate ACTH-regulated enzyme activity in the slices, the synthetic ACTH-analogue tetracosactide (11 nM) was added. The labeled and unlabeled test substances (MeSO2-DDE and o,p′-DDD) were added to the fresh incubation medium, dissolved in DMSO (not exceeding 0.5% of the total volume). Control slices were cultured in medium containing DMSO only.
Cortisol, 11-deoxycortisol, corticosterone, 11-deoxycorticosterone, aldosterone, androstenedione and 17-OH-progesterone concentrations in the medium were measured with HPLC using UV detection (241 nm), as described previously (4). The steroid products were separated using a linear gradient of 18–80% acetonitrile (1 ml/min), obtained by diluting acetonitrile/tetrahydrofuran (90/10 vol %) with methanol/water (40/60 vol %), for 32 min. The amounts of steroids were expressed as nmol/slice. The detection level of cortisol/corticosterone was 5 pmol/ml medium. To adjust for differences in slice size, the steroids were expressed as a percentage of the amount of cortisol from the same slice.

normal adrenal slices [5] = assay: Microautoradiography of irreversible binding in precision-cut normal adrenal slice culture; assay type: cell-based; conditions: normal human adrenal slices, 24 h; MeSO2-[14C]DDE 2.6 μM, o,p′-[14C]DDD 3.8 μM
Method: Normal adrenal tissue, cortex as well as apparently unaffected medulla, was obtained from a […] MEN 2 patient operated on for an ipsilateral pheochromocytoma. Another normal adrenal was obtained from a patient operated on for a renal carcinoma.
as §1, §2
Microautoradiography: Slices were incubated with MeSO2-[^14C]DDE (2.6 μM, 35 nCi/ml) or o,p′-[^14C]DDD (3.8 μM, 60 nCi/ml) for 24 h. The labeled substances were added to the medium dissolved in DMSO. […]

[6] = system: bilateral non-functioning adrenocortical hyperplasia; assay: Bound radioactivity in slices from a bilateral non-functioning adrenocortical hyperplasia; assay type: cell-based, human
Method: Tissue from a bilateral non-functioning adrenocortical hyperplasia was obtained from a person.
as §1
To inhibit CYP-dependent enzyme activity in the slices, incubation wells were supplemented with the CYP11B1 (11β-hydroxylase) inhibitor metyrapone (50 μM) when applicable. […]
Phosphorautoradiography: Semi-quantification of tissue-bound radioactivity was accomplished by apposing tissue sections to imaging plates (BAS-IP MP 2040S Fuji, Japan) for 49 days. The radioactivity in the labeled areas of the adrenal sections was recorded by reading the imaging plate in a Phosphoimager (BAS 1500, Fuji, Japan). For semi-quantification of the tissue-bound radioactivity, a Windows-based bio-imaging analyzer program (ImageGauge, version 3.122, Fujifilm, Japan) was used.
In order to correlate tissue-bound radioactivity and metabolically active regions in the incubated slices, the labeled areas of the images were marked selectively at 1 pixel resolution (1 pixel=100 μm). […]

[7] = system: cells from the human adrenal cortex; conditions: homogenate incubations, read-out: apparent Km-value; cited from earlier work
CYP 11B1 [8] = target: T1, CYP 11B1; set-up: expressed in transfected cells; host or cells: V79 hamster cells; conditions: 5 μM; V79 hamster cells transfected with human CYP11B1 DNA; cited from earlier work
adrenocortical carcinoma = conditions: cited from earlier work

SMILES | inhibition of irreversible binding in zona fasciculata/reticularis in metyrapone-exposed slices (normal adrenal slices [1]) | amount of tissue-bound radioactivity, MeSO2-[14C]DDE- versus o,p′-[14C]DDD-exposed slices (normal adrenal slices [1]) | irreversible binding in rat adrenal slices (rat adrenal slices) | irreversible binding in mouse adrenal cortex slices (mouse adrenal slices) | binding to adrenocortical carcinoma cells [4] | cortisol or corticosterone secretion compared with control slices (adrenal slices) | effect on steroid secretion compared with control (adrenal slices) | labeling of adrenal zones in autoradiograms (irreversible binding) (normal adrenal slices [5]) | Km [7] | also measured
CS(=O)(=O)c1cc(C(=C(Cl)Cl)c2ccc(Cl)cc2)ccc1Cl [MeSO2-DDE, 1-(4-Chloro-3-methylsulphonylphenyl)-1-(4-chlorophenyl)-2,2-dichloroethene] | below the detection limit | no significant difference | very weak binding | strong irreversible binding | irreversibly bound | no significant difference | increased accumulation of 11-deoxycorticosterone, 11-deoxycortisol and androstenedione | high and selective labeling of zona fasciculata and zona reticularis; also recorded: confined to both zona fasciculata and zona reticularis | 1.4 µM | plasma corticosterone levels ([2]; mice, following exposure): reduced plasma corticosterone levels; irreversible binding to cellular macromolecules in vivo ([2]; mouse adrenal zona fasciculata cells): cell-specific irreversible binding; effect on CYP 11B1 enzyme activity (CYP 11B1 [3]): inhibit CYP 11B1 enzyme activity; binding to adrenocortical carcinoma cells ([4]; listed as MeSO2-[^14C]DDE): selective binding; 11-deoxycortisol in the culture medium (adrenal slices): detectable only in the culture medium of MeSO2-DDE-exposed slices; 11-deoxycorticosterone secretion to the medium (adrenal slices; compared with o,p′-DDD exposed slices and control slices): significant increase; androstenedione secretion (adrenal slices; compared with o,p′-DDD-exposed slices): increased; irreversible binding in nonfunctional adrenocortical hyperplasia [6]: irreversibly bound
CC(C)(C(=O)c1cccnc1)c1cccnc1 [metyrapone] |  |  |  |  |  |  |  |  |  | effect of metyrapone on irreversible protein binding and toxicity of MeSO2-DDE in the adrenal zona fasciculata ([2]; mouse, in vivo): effectively blocked; effect of metyrapone on irreversible MeSO2-[14C]DDE-binding and corticosterone secretion (mouse adrenal slices; mouse adrenal slice culture and mouse adrenal homogenate): inhibits; block of synthesis of cortisol from 11-deoxycortisol (CYP 11B1 [8]): 86%
Clc1ccc(C(c2ccccc2Cl)C(Cl)Cl)cc1 (stereo not drawn) [o,p′-DDD, 1-(2-chlorophenyl)-1-(4-chlorophenyl)-2,2-dichloroethane] | 32% | no significant difference | negligable irreversible binding | negligable irreversible binding | selective binding | no significant difference | did not produce any visible effect | high and selective labeling of zona fasciculata and zona reticularis; also recorded: localized in a similar way | 24 µM | irreversible binding in mouse adrenal cortex slices (mouse adrenal slices; listed as o,p′-[^14C]DDD): very weak; patients not cured by surgery who responded to treatment (adrenocortical carcinoma; adrenocortical carcinoma patients): 194 out of 551; side effects (adrenocortical carcinoma; patients, therapeutic doses): dose-dependent side effects in the gastrointestinal tract (nausea, vomiting and diarrhea) and CNS (dizziness and headaches); therapeutically insufficient plasma concentrations (adrenocortical carcinoma; patients): below 10 μg/ml and < 31 μM
